Broadly, the GI50 is the concentration at which growth is held to half of that of the control. A higher GI50 goes with less potent growth inhibition.

Among the data in US20250388605A1, “HETEROBIFUNCTIONAL COMPOUNDS AND METHODS OF TREATING DISEASE” (Halda Therapeutics OpCo, Inc., priority 2022, published 2025) are GI50 values, retold here.

The test system of test [1] is T-Rex 293 cell line SC3 cells having increased expression of androgen receptor protein due to exposure to doxycycline. Briefly: Cellular growth inhibition, T-Rex 293 SC3 cells with doxycycline (increased androgen receptor expression), CellTiter-Glo. Particulars: T-Rex 293 SC3 cells with 10 ng/mL doxycycline (increased androgen receptor expression), 72 hours, CellTiter-Glo 2.0. In kind it is cell-based. Summed up: (§1)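 Growth inhibition is measured in an inducible AR-expressing T-Rex 293 clone, SC3, cultured with or without 10 ng/mL doxycycline in hormone-depleted medium. Test compounds are applied for 72 hours. GI50 values derive from CellTiter-Glo 2.0 signal fitted by four-parameter regression.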
For orientation: ATP-based viability assays read luminescence as a measure of living cells.

Test [2] has as its system T-Rex 293 cell line SC3 cells lacking increased expression of androgen receptor protein. Briefly: Cellular growth inhibition, T-Rex 293 SC3 cells without doxycycline (no increased androgen receptor expression), CellTiter-Glo. In kind it is cell-based. Particulars: T-Rex 293 SC3 cells not exposed to doxycycline (no increased androgen receptor expression), 72 hours. Summed up: as §1

The test system of a further test is VCaP cells. Nature of the test: Cellular growth inhibition assay for VCaP cells, CellTiter-Glo. In kind it is cell-based, human. The settings on record: 72 hours. Summed up:
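GI50 values come from four-parameter curve fits of luminescence data normalized to a zero baseline. Compound, in medium with 0.5% DMSO, was added one day after plating and left for 72 h before CellTiter-Glo 2.0 addition.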

For another test, the system named is T47D cells. Nature of the test: Cellular Growth Inhibition Assay for T47D Cells (CellTiter-Glo). In kind it is cell-based, human. Particulars: 72 hours. The method, then:
Exemplary compounds were tested for ability to inhibit the proliferation of T47D cells. T47D cells are a commercially available human breast cancer cell line.
T47D cells were purchased from American Type Cell Culture (ATCC Cat #HTB-133) and then seeded on poly-D-lysine coated, black clear-bottom 384-well plates at 3000/well in 25 μL Dulbecco's Modified Eagle Medium (DMEM) supplemented with 10% w/w Fetal bovine serum (FBS), 0.2 units/mL recombinant human insulin (Gibco Cat #12585014), and 1% w/w Pen-Strep. Pen-Strep is a commercially available mixture of penicillin G and streptomycin, which is used in mammalian cell culture media to prevent bacterial contamination. Dulbecco's Modified Eagle Medium (DMEM) supplemented with 10% w/w fetal bovine serum (FBS), 0.2 units/mL recombinant human insulin, and 1% w/w Pen-Strep is herein referred to as Treatment Medium. Following seeding of cells in the plates, the plates were spun at 300×g for 30 seconds, then equilibrated to room temperature for 30 minutes, and then deposited in a humidified tissue culture incubator maintained at 37° C. with 5% CO2.
At 24 hours after seeding of the cells, dilutions of test compound were prepared in DMSO and dissolved in Treatment Medium, to achieve a final DMSO concentration of 0.5% w/w, thereby providing the Test Compound Solution. A 25 μL aliquot of the Test Compound Solution was added to cells in the well plates. An equal volume of a solution containing DMSO and Treatment Medium was used as a negative control. Following treatment of cells with Test Compound Solution or said equal volume of a solution containing DMSO and Treatment Medium, the plates were spun at 300×g for 30 seconds, and then left in an incubator for 72 hours.
At the end of the treatment duration, cell viability was quantified with CellTiter-Glo 2.0 reagent (Promega Cat #G9243). For this purpose, plates were equilibrated to room temperature for 30 minutes, and then 25 μL of CellTiter-Glo 2.0 reagent was added to cells in the plate wells. Plates were then agitated on a shaker for two minutes at 500 rpm and subsequently incubated at room temperature for 10 minutes. Following incubation, the plates were spun at 3000×g for 30 seconds, then sealed with an optical adhesive cover, and luminescence readings were measured with an EnVision Plate Reader (Perkin Elmer).
Data was normalized using zero luminescence for baseline. A four-parameter non-linear regression curve fit was applied to dose-response data in GraphPad Prism data analysis software to determine the half-maximal growth inhibitory concentration (GI50) for each test compound.

As for `Cn1cc(-c2cc(C(C)(C)O)ccc2OCC(CCCN2CCN(c3ncc(C(=O)N[C@H]4C(C)(C)[C@H](Oc5ccc(C#N)c(Cl)c5)C4(C)C)cn3)CC2)C2CC2)c2cc[nH]c2c1=O` (some centres unmarked) [Compound I-237], the GI50 is below 500 nM in test [1], 500 to 1500 nM in test [2], 500 to 1500 nM with VCaP cells (Homo sapiens) and 500 to 1500 nM in the test with T47D cells (Homo sapiens).

On to `Cn1cc(-c2cc(C(C)(C)O)ccc2Oc2ccc(CCOC3CCN(c4ncc(C(=O)N[C@H]5C(C)(C)[C@H](Oc6ccc(C#N)c(Cl)c6)C5(C)C)cn4)CC3)cn2)c2cc[nH]c2c1=O` [Compound I-315], for which the concentration for 50% growth inhibition (GI50) is below 500 nM in test [1], above 3000 nM in test [2], below 500 nM with VCaP cells (Homo sapiens) and 500 to 1500 nM with T47D cells (Homo sapiens).

Take `Cn1cc(-c2cc(S(C)(=O)=O)ccc2Oc2cccc(CCCC3CCN(c4ncc(C(=O)NC5C(C)(C)C(Oc6ccc(C#N)c(Cl)c6)C5(C)C)cn4)CC3)c2)c2cc[nH]c2c1=O` (centres unmarked) [Compound I-249, N-[3-(3-chloro-4-cyano-phenoxy)-2,2,4,4-tetramethyl-cyclobutyl]-2-[4-[3-[3-[2-(6-methyl-7-oxo-1H-pyrrolo[2,3-c]pyridin-4-yl)-4-methyl-sulfonyl-phenoxy]phenyl]propyl]-1-piperidyl]pyrimidine-5-carboxamide]: the GI50 in test [1] is below 500 nM; in test [2], above 3000 nM; in the test on VCaP cells (Homo sapiens), 500 to 1500 nM; in the test on T47D cells (Homo sapiens), 500 to 1500 nM.

In the case of `Cn1cc(-c2cc(C(C)(C)O)ccc2Oc2ccc(CN3CC4(C3)CN(c3ncc(C(=O)N[C@H]5C(C)(C)[C@H](Oc6ccc(C#N)c(Cl)c6)C5(C)C)cn3)CCO4)cc2)c2cc[nH]c2c1=O` [Compound I-300], the 50% growth inhibitory concentration (GI50) (in test [1]; in test [2]; in the test with VCaP cells; with T47D cells) was below 500 nM in each case.

As to `CCS(=O)(=O)Nc1ccc(Oc2cccc(COC3CCN(c4ncc(C(=O)N[C@H]5C(C)(C)[C@H](Oc6ccc(C#N)c(Cl)c6)C5(C)C)cn4)CC3)c2F)c(-c2cn(C)c(=O)c3[nH]ccc23)c1` [Compound I-164], the concentration for 50% growth inhibition (GI50) in test [1] is below 500 nM; in test [2], above 3000 nM; in the test with VCaP cells (Homo sapiens) it was below 500 nM; with T47D cells (Homo sapiens), below 500 nM.

As for `Cn1cc(-c2cc(C(C)(C)O)ccc2Oc2ccc(N3CC(C4CC5(C4)CN(c4ncc(C(=O)N[C@H]6C(C)(C)[C@H](Oc7ccc(C#N)c(Cl)c7)C6(C)C)cn4)C5)C3)cc2)c2cc[nH]c2c1=O` [Compound I-351], the concentration for 50% growth inhibition (GI50) (in test [1]; in test [2]; in the test with VCaP cells; in the test on T47D cells) was below 500 nM throughout.

For the compound `Cn1cc(-c2ccccc2Oc2cccc(OCCN3CCN(c4ncc(C(=O)N[C@H]5C(C)(C)[C@H](Oc6ccc(C#N)c(Cl)c6)C5(C)C)cn4)CC3)c2F)c2cc[nH]c2c1=O` [Compound I-115], the GI50 in test [1] is below 500 nM; in test [2] it was below 500 nM; in the test on VCaP cells it was below 500 nM; with T47D cells, 500 to 1500 nM.

Take `Cn1cc(-c2cc(S(C)(=O)=O)ccc2Oc2cccc(CCCC3CCN(c4ncc(C(=O)N[C@H]5C(C)(C)[C@H](Oc6ccc(C#N)c(Cl)c6)C5(C)C)cn4)CC3)c2F)c2cc[nH]c2c1=O` [Compound I-250]: the concentration for 50% growth inhibition (GI50) in test [1] was below 500 nM; in test [2], above 3000 nM; with VCaP cells, 500 to 1500 nM; in the test on T47D cells it was below 500 nM.

Consider `Cn1cc(-c2cc(C(C)(C)O)ccc2Oc2ccc(N3CC(CC4CN(c5ccc(C(=O)N[C@H]6C(C)(C)[C@H](Oc7ccc(C#N)c(Cl)c7)C6(C)C)nn5)C4)C3)cc2)c2cc[nH]c2c1=O` [Compound I-319], for which the concentration for 50% growth inhibition (GI50) (in test [1]; in test [2]; with VCaP cells (Homo sapiens); in the test with T47D cells (Homo sapiens)) was below 500 nM each time.

As to `Cn1cc(-c2cc(C(C)(C)O)ccc2Oc2ccc(N3CC(CC4CN(c5ccc(C(=O)N[C@H]6C(C)(C)[C@H](Oc7ccc(C#N)c(Cl)c7)C6(C)C)cn5)C4)C3)cc2)c2cc[nH]c2c1=O` [Compound I-316], the GI50 in test [1] was below 500 nM; in test [2], below 500 nM; in the test with VCaP cells (Homo sapiens) it was below 500 nM; in the test on T47D cells (Homo sapiens), 500 to 1500 nM.

With `Cn1cc(-c2cc(C(C)(C)O)ccc2Oc2ccc(N3CCC(CC4CN(c5ncc(C(=O)N[C@H]6C(C)(C)[C@H](Oc7ccc(C#N)c(Cl)c7)C6(C)C)cn5)C4)CC3)cc2)c2cc[nH]c2c1=O` [Compound I-350], the GI50 (in test [1]; in test [2]; with VCaP cells (Homo sapiens); with T47D cells (Homo sapiens)) was below 500 nM in each case.

As for `Cn1cc(-c2cc(C(C)(C)O)ccc2Oc2cccc(N3CC(CN4C5CCC4CC(c4ncc(C(=O)N[C@H]6C(C)(C)[C@H](Oc7ccc(C#N)c(Cl)c7)C6(C)C)cn4)C5)C3)c2F)c2cc[nH]c2c1=O` (some centres unmarked) [Compound I-258], the concentration for 50% growth inhibition (GI50) in test [1] is below 500 nM; in test [2], 500 to 1500 nM; in the test with VCaP cells (Homo sapiens), below 500 nM; with T47D cells (Homo sapiens), below 500 nM.

With `CCS(=O)(=O)c1ccc(OC2CC(OC3CC4(CCN(c5ncc(C(=O)NC6C(C)(C)C(Oc7ccc(C#N)c(Cl)c7)C6(C)C)cn5)CC4)C3)C2)c(-c2cn(C)c(=O)c3[nH]ccc23)c1` (centres unmarked) [Compound I-295, N-[3-(3-chloro-4-cyano-phenoxy)-2,2,4,4-tetramethyl-cyclobutyl]-2-[2-[3-[4-ethylsulfonyl-2-(6-methyl-7-oxo-1Hpyrrolo[2,3-c]pyridin-4-yl)phenoxy]cyclobutoxy]-7-azaspiro[3.5]nonan-7-yl]pyrimidine-5-carboxamide], the GI50 (in test [1]; in test [2]; in the test on VCaP cells (Homo sapiens); in the test with T47D cells (Homo sapiens)) was below 500 nM throughout.

Consider `Cn1cc(-c2cc(NS(=O)(=O)C3CC3)ccc2Oc2cccc(N3CC(OC4CCN(c5ncc(C(=O)N[C@H]6C(C)(C)[C@H](Oc7ccc(C#N)c(Cl)c7)C6(C)C)cn5)CC4)C3)c2F)c2cc[nH]c2c1=O` [Compound I-171], for which the 50% growth inhibitory concentration (GI50) in test [1] is below 500 nM; in test [2], above 3000 nM; with VCaP cells, above 3000 nM; with T47D cells it was below 500 nM.

As for `Cn1cc(-c2cc(C(C)(C)O)ccc2OC2CC3CC2CC3OC2CCN(c3ncc(C(=O)N[C@H]4C(C)(C)[C@H](Oc5ccc(C#N)c(Cl)c5)C4(C)C)cn3)CC2)c2cc[nH]c2c1=O` (some centres unmarked) [Compound I-253, N-[3-(3-chloro-4-cyano-phenoxy)-2,2,4,4-tetramethyl-cyclobutyl]-2-[4-[5-[4-(1-hydroxy-1-methyl-ethyl)-2-(6-methyl-7-oxo-1H-pyrrolo[2,3-c]pyridin-4-yl)phenoxy]norbornan-2-yl]oxy-1-piperidyl]pyrimidine-5-carboxamide], the GI50 in the test on VCaP cells (Homo sapiens) was below 500 nM; in the test on T47D cells (Homo sapiens), 500 to 1500 nM.

Turning to `Cn1cc(-c2cc(C(C)(C)O)ccc2OC(CCCCN2CCN(c3ncc(C(=O)N[C@H]4C(C)(C)[C@H](Oc5ccc(C#N)c(Cl)c5)C4(C)C)cn3)CC2)C2CC2)c2cc[nH]c2c1=O` (some centres unmarked) [Compound I-252], the GI50 in the test on VCaP cells was below 500 nM; in the test on T47D cells, 500 to 1500 nM.

Regarding `Cn1cc(-c2cc(C(C)(C)O)ccc2OC(C)(C)CN2CC(OC3CCN(c4ncc(C(=O)N[C@H]5C(C)(C)[C@H](Oc6ccc(C#N)c(Cl)c6)C5(C)C)cn4)CC3)C2)c2cc[nH]c2c1=O` [Compound I-254, N-[3-(3-chloro-4-cyano-phenoxy)-2,2,4,4-tetramethyl-cyclobutyl]-2-[4-[1-[2-[4-(1-hydroxy-1-methyl-ethyl)-2-(6-methyl-7-oxo-1H-pyrrolo[2,3-c]pyridin-4-yl)phenoxy]-2-methyl-propyl]azetidin-3-yl]oxy-1-piperidyl]pyrimidine-5-carboxamide], the GI50 was below 500 nM with VCaP cells (Homo sapiens) and above 3000 nM in the test with T47D cells (Homo sapiens).
